Laboratory results published in patent publication US8828678B2, “Self-immolative probes for enzyme activity detection” (Enzo Life Sciences, Inc., priority 2010, dated 2014).

Experiments:
[1] = tested on: Jurkat cells; assay: Detection of hypoxia using flow cytometry; assay type: cell-based, human; settings: 5 μM CD-1, 1 μM CD-6, versus vehicle-treated loaded cells
Experimental: HeLa and U-2 OS cells were cultured as described in Example 7. Human Jurkat T-cell leukemia cells (the A3 subclone) was obtained from ATCC and routinely cultured in RPMI-1640 medium (ATCC) supplemented with 10% fetal bovine serum (ATCC) and 100 U/ml penicillin+100 μg/ml streptomycin (Sigma-Aldrich). Cell cultures were maintained in an incubator at 37° C., with 5% CO2 atmosphere. CD-1, CD-4 and CD-6 self-immolative hypoxia probes were prepared as described in Example 8. All hypoxia inducers stocks were prepared as described in Example 7.
The day before the experiment, HeLa and U-2 OS cells were seeded in 6-well tissue culture plates at a density 5×10^5 cells/well. […] Post-treatment, the adherent cells (HeLa and U-2 OS) were collected by trypsinization, re-suspended in 0.5 mL of fresh PBS and analyzed using flow cytometry. Jurkat cells were analyzed without washing.
Flow cytometry experiments were performed using a FACS Calibur benchtop flow cytometer (BD Biosciences) equipped with a blue (488 nm) laser, and the fluorescence was recorded in the FITC (530/30 filter), PE (585/42 filter) and PerCP (670 LP filter) channels. Hypoxic cells were detected by detecting increases in fluorescence. The degree of hypoxia (Khyp) can be quantified by using Kolmogorov-Smirnov statistics (Young, 1977) or the following formula: Khyp=(MFIhyp−MFIcon)/MFIhyp, […]

[2] = tested on: Jurkat cells; assay: Combined detection of hypoxia and superoxide in live cells by flow cytometry; assay type: cell-based, human; settings: CD-1 5 μM in combination with superoxide detection reagent, flow cytometry
Experimental: HeLa, U-2 OS, and Jurkat cell lines were cultured as described in Examples 7 and 9. Stock solutions of the probes and inhibitors were prepared as described in Examples 7 and 10.
The day before the experiment, HeLa and U-2 OS cells were seeded in 6-well tissue culture plates at a density of 5×10^5 cells/well. Jurkat cells were collected in logarithmic phase of growth and aliquoted at a density of 5×10^5 cells/sample. On the day of the experiment, the cells were preloaded with either hypoxia or ROS-detecting probes only or with the combination of hypoxia and ROS-detecting probes with compatible spectral characteristics. Samples stained with single hypoxia probes or with two ROS-detecting probes were made to validate data obtained with the combination of hypoxia and redox probes. The probes used in the experiment and their final concentrations in cell culture medium were as follows: CD-1(5 μM) and CD-6 (1 μM), DCFDA, peroxide/peroxynitrite/hydroxyl detection probe and HE, specific superoxide detection reagent (1 μM for both redox probes). Hypoxia was induced in the cells as described in Example 7. Additionally, cells were treated with different general and specific ROS inducers and stained with ROS-detecting probes to control ROS production and staining. Post-treatment, the adherent cells (HeLa and U-2 OS) were collected by trypsinization, re-suspended in 0.5 mL of fresh PBS and analyzed using flow cytometry. Jurkat cells were analyzed without washing. Flow cytometry experiments were performed using an FACS Calibur benchtop flow cytometer (BD Biosciences) equipped with a blue (488 nm) laser, and the fluorescence was recorded in the FITC (530/30 filter), PE (585/42 filter) and PerCP (670 LP filter) channels. Data were collected uncompensated, also compensation corrections were performed using unstained cells, and cells stained with each single dye separately (CD-1, CD-6, DCFDA or HE). To quantify data, quadrant gates were set using untreated samples.

Compound: O=C(Nc1ccc2c(c1)Oc1cc(NC(=O)N3CCOCC3)ccc1C21OC(=O)c2ccccc21)OCc1ccc([N+](=O)[O-])cc1 (centres unmarked) [CD-1]
- fluorescence in Jurkat cells treated with chemical hypoxia inducers or subjected to anoxia [1]: fluorescence increase
- population of green positive cells in hypoxia-induced Jurkat samples [2]: increased population of green positive cells
